Experiment: Lack of precipitate formation in aqueous solution
Format: physicochemical
Conditions: ~5% concentration solution in water; after three months following its preparation
Procedure: 3.220 g of sodium ascorbyl phosphate is dissolved into 100 mL water and then 1.567 g of SnF2 is added. The mixture is stirred into completely solubilized and heat at 60 C for one hour. The solution is directly analyzed by 13C-NMR and diluted into 5000 ppm and analyzed by LC-MS.
In one aspect, a solution of ˜5% concentration of stannous ascorbyl phosphate is prepared as described in the above examples.

formation of an observable precipitate: will not form an observable precipitate
Substance: stannous ascorbyl phosphate

— patent US20190185499A1, “Novel Compounds” (Colgate-Palmolive Company, priority 2017, published 2019)
